From PMC9296478, “Discovery of a lectin domain that regulates enzyme activity in mouse N-acetylglucosaminyltransferase-IVa (MGAT4A)” (Communications Biology, 2022) come the findings set out here.

The target of experiment [1] is T1, soluble wild-type GnT-IVa enzyme (Mus musculus, UniProt Q812G0).
T1 construct: gene Mgat4a; luminal region, residues 60-526 (catalytic plus lectin domain), N-terminal His tag, secreted from COS7 cells (pcDNA-IH), Ni2+ column purified from medium
T1 sequence (Q812G0 60-526 isoform Q812G0-2 D445A): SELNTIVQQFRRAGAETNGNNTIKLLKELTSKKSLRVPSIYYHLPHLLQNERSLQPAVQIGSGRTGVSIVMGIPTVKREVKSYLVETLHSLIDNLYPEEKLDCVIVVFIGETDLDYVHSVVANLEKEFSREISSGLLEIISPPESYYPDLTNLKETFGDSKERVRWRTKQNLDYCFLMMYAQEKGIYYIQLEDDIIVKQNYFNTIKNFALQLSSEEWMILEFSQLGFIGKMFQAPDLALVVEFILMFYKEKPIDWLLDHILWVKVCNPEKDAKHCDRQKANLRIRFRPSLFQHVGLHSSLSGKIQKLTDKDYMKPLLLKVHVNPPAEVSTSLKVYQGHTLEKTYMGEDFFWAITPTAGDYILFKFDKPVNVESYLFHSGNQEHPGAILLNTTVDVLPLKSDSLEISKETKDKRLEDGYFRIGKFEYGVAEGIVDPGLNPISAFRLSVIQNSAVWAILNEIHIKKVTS
The experiment in a line: HPLC assay of PA-labelled product. Type of experiment: biochemical. The following applies: 10 mM MnCl2, 125 mM MES pH 6.25, 200 mM GlcNAc, 37 °C.

The target in experiment [2] is T2, GnT-IVa lectin domain (Mus musculus, UniProt Q812G0).
T2 construct: gene Mgat4a; C-terminal lectin domain, residues 382-526, expressed in E. coli BL21(DE3) RIPL as GST fusion (pGEX6P-1), GST cleaved by PreScission protease; 15N-labelled for NMR
T2 sequence (Q812G0 382-526 isoform Q812G0-2): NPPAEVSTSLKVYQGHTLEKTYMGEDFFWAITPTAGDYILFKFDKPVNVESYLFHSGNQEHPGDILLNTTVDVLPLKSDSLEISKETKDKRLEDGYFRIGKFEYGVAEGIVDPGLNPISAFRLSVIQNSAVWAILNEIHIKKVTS
As to the kind of experiment: 1H-15N HSQC NMR titration (peak A). The following applies: 20 mM sodium phosphate pH 6.0, 298 K, 0.4 mM protein; read-out: dissociation constant. Type of experiment: binding.

Take `CC(=O)N[C@H]1[C@@H](OP(=O)(O)OP(=O)(O)OC[C@H]2O[C@@H](n3ccc(=O)[nH]c3=O)[C@H](O)[C@@H]2O)O[C@H](CO)[C@@H](O)[C@@H]1O` [UDP-GlcNAc]: the Km in experiment [1] (10 μM GnGnbi-PA, 0.625-20 mM UDP-GlcNAc) was 3950 µM.
Consider `CC(=O)N[C@H]1C(O)O[C@H](CO)[C@@H](O)[C@@H]1O` (stereo partly shown) [GlcNAc], for which, in experiment [2], the Kd was 3.1 mM.
Turning to `CC(=O)N[C@H]1[C@H](O[C@@H]([C@H](O)[C@H](CNc2ccccn2)NC(C)=O)[C@H](O)CO)O[C@H](CO)[C@@H](O[C@@H]2O[C@H](CO[C@H]3O[C@H](CO)[C@@H](O)[C@H](O)[C@@H]3O[C@@H]3O[C@H](CO)[C@@H](O)[C@H](O)[C@H]3NC(C)=O)[C@@H](O)[C@H](O[C@H]3O[C@H](CO)[C@@H](O)[C@H](O)[C@@H]3O[C@@H]3O[C@H](CO)[C@@H](O)[C@H](O)[C@H]3NC(C)=O)[C@@H]2O)[C@@H]1O` [GnGnbi-PA], the Km in experiment [1] (20 mM UDP-GlcNAc, 32-640 μM acceptor, labelled compound) amounted to 1250 µM.
As to `CC(=O)N[C@H]1[C@H](O[C@@H]2C(O)O[C@H](CO)[C@@H](O)[C@@H]2O)O[C@H](CO)[C@@H](O)[C@@H]1O` (stereo partly shown) [GlcNAcβ1-2Man], the Kd in experiment [2] was 0.32 mM.
